Experimental data as given in the supplement of paper PMC11208160.

Test: recombinant barcode read abundance after kanamycin selection (control-corrected) (log10(CPM+1)); higher = more efficient recombination; sequences stand for … in AGTGCAGAGAAAATCGGCCAGTTTTCTCTGCCTGCAGTCCGCATGCCGT…AGATTTATGCAGCGGACTGCCTTTCTCCCAAAGTGATAAACCGGACAGTATCATGGACCGGTTTTCCCGGTAATCCGTATTTGCAAGGTTGGTTTCACT; site = the 11-nt target
Method in brief: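 In E. coli, a pooled library matched targets to IS621 bridge RNA target-binding loops and was introduced alongside a donor plasmid. Cells went onto chloramphenicol/ampicillin/kanamycin with 0.1 mM IPTG or onto chloramphenicol/ampicillin LB agar as control, in duplicate. Recombination efficiency, from recombinant-junction barcodes as counts per million, is averaged and control-corrected. It is reported as log10(CPM+1).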
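Also: IS621 recombinase and bridge RNA in Escherichia coli cells.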

Sequence	recombinant barcode read abundance (log10)
AGGTGTCCTTGGGTTCTAACCTGTTGCGA (site AGGTGTCCTTC)	2.36
AGGTGTCCTTGGGTTCTAACCTGTTGCGA (site TATATATCTAT)	0.247
AGGTTCCCTTGGGTTCTAACCTGTTGCGG (site AGGTTCCCTCC)	1.96
AGGTTCCCTTGGGTTCTAACCTGTTGCGG (site CTAGGAACTTA)	0.11
AGGTTCCCTTGGGTTCTAACCTGTTGCTG (site AGGTTCCCTAA)	0.154
AGGTTCCCTTGGGTTCTAACCTGTTGCTG (site AGGTTCCCTCA)	2.46
AGGTTCCCTTGGGTTCTAACCTGTTGCTG (site AGGTTCCCTGA)	0.142
AGGTTCCCTTGGGTTCTAACCTGTTGCTG (site AGGTTCCCTTA)	0.358
AGTAAGACTTGGGTTCTAACCTGTTGCGT (site AGTAAGACTAA)	0.062
AGTAAGACTTGGGTTCTAACCTGTTGCGT (site AGTAAGACTAC)	2.25
AGTAAGACTTGGGTTCTAACCTGTTGCGT (site AGTAAGACTAG)	0.482
AGTAAGACTTGGGTTCTAACCTGTTGCGT (site AGTAAGACTAT)	1.22
AGTAAGACTTGGGTTCTAACCTGTTGCTT (site AGTAAGACTAA)	0.281
AGTAAGACTTGGGTTCTAACCTGTTGCTT (site AGTAAGACTAC)	0.354
AGTAAGACTTGGGTTCTAACCTGTTGCTT (site AGTAAGACTAG)	0.202
AGTAAGACTTGGGTTCTAACCTGTTGCTT (site AGTAAGACTAT)	0.15
AGTACTACTTGGGTTCTAACCTGTTGCCT (site AATACTACTAG)	0.0591
AGTACTACTTGGGTTCTAACCTGTTGCCT (site ACTACTACTAG)	0.0106
AGTACTACTTGGGTTCTAACCTGTTGCCT (site AGTACTACTAG)	0.25
AGTACTACTTGGGTTCTAACCTGTTGCCT (site ATTACTACTAG)	0.162

Sequence	recombinant barcode read abundance (log10)
AGTAGGCCTTGGGTTCTAACCTGTTGCGG (site AGTAGGCCTCC)	1.4
AGTAGGCCTTGGGTTCTAACCTGTTGCGG (site GGTAGGACTCC)	0.303
AGTAGGGCTTGGGTTCTAACCTGTTGCAG (site AGTAGGGCTCT)	2.65
AGTAGGGCTTGGGTTCTAACCTGTTGCAG (site CGTAGGGCTCG)	0.0704
AGTATCGCTTGGGTTCTAACCTGTTGCGG (site AGTATCGCTCC)	1.11
AGTATCGCTTGGGTTCTAACCTGTTGCGG (site AGTCTCGCTCC)	0.11
AGTATCGCTTGGGTTCTAACCTGTTGCGG (site AGTGTCGCTCC)	0.0704
AGTATCGCTTGGGTTCTAACCTGTTGCGG (site AGTTTCGCTCC)	0.246
AGTATGTCTTGGGTTCTAACCTGTTGCCT (site AGTATGTCTAG)	1.13
AGTATGTCTTGGGTTCTAACCTGTTGCCT (site CGTATGTCTAG)	0.184
AGTATGTCTTGGGTTCTAACCTGTTGCCT (site GGTATGTCTAG)	0.0305
AGTATGTCTTGGGTTCTAACCTGTTGCCT (site TGTATGTCTAG)	0.116
AGTCACACTTGGGTTCTAACCTGTTGCAG (site AGTCACACTCT)	1.44
AGTCACACTTGGGTTCTAACCTGTTGCAG (site TTGTGAGCTGC)	0.153
AGTCACACTTGGGTTCTAACCTGTTGCTG (site AGTCACACTCA)	1.18
AGTCACACTTGGGTTCTAACCTGTTGCTG (site AGTCACACTTA)	0
AGTCCACCTTGGGTTCTAACCTGTTGCCT (site AGTCCACCTAG)	1.53
AGTCCACCTTGGGTTCTAACCTGTTGCCT (site CGTCCACCTAG)	0.166
AGTCCACCTTGGGTTCTAACCTGTTGCCT (site GGTCCACCTAG)	0.132
AGTCCACCTTGGGTTCTAACCTGTTGCCT (site TGTCCACCTAG)	0.49

Sequence	recombinant barcode read abundance (log10)
AGTCCGTCTTGGGTTCTAACCTGTTGCAT (site AGTCCGTCTAT)	1.29
AGTCCGTCTTGGGTTCTAACCTGTTGCAT (site CTAATAGCTTG)	0.0391
AGTCGGACTTGGGTTCTAACCTGTTGCTT (site AGTCATACTAA)	0.446
AGTCGGACTTGGGTTCTAACCTGTTGCTT (site AGTCGGACTAA)	0.517
AGTCGTACTTGGGTTCTAACCTGTTGCCT (site AGACGTACTAG)	0.166
AGTCGTACTTGGGTTCTAACCTGTTGCCT (site AGCCGTACTAG)	0.213
AGTCGTACTTGGGTTCTAACCTGTTGCCT (site AGGCGTACTAG)	0.0589
AGTCGTACTTGGGTTCTAACCTGTTGCCT (site AGTCGTACTAG)	0.536
AGTCTAGCTTGGGTTCTAACCTGTTGCCA (site AGTCTAGCTAG)	0.176
AGTCTAGCTTGGGTTCTAACCTGTTGCCA (site AGTCTAGCTCG)	0.217
AGTCTAGCTTGGGTTCTAACCTGTTGCCA (site AGTCTAGCTGG)	0.548
AGTCTAGCTTGGGTTCTAACCTGTTGCCA (site AGTCTAGCTTG)	0.493
AGTCTAGCTTGGGTTCTAACCTGTTGCGG (site AGGATAGCTCC)	0.479
AGTCTAGCTTGGGTTCTAACCTGTTGCGG (site AGTCTAGCTCC)	1.33
AGTCTGCCTTGGGTTCTAACCTGTTGCCT (site AGTCTGCCTAG)	0.427
AGTCTGCCTTGGGTTCTAACCTGTTGCCT (site CGTCTGCCTAG)	0.0547
AGTCTGCCTTGGGTTCTAACCTGTTGCCT (site GGTCTGCCTAG)	0.0978
AGTCTGCCTTGGGTTCTAACCTGTTGCCT (site TGTCTGCCTAG)	0.0318
AGTGAACCTTGGGTTCTAACCTGTTGCCT (site AGCTAACCTAG)	0.013
